Like-named read-outs stand apart in the source and are kept apart here.
Columns and labels:
[1] = HLB values of compositional components; conditions: share in the oil phase of ACv14 (% of oil phase x rHLB); Total = sum
Excerpt: HLB is typically considered when planning oil-in-water cream formulations according to the requirements of the cream.
If the Oat EMO is omitted and the Flax FFA oil raised, then a higher rHLB is required, meaning that a larger percentage of the emulsifier can be high HLB (S-20). This 0% Oat MAG (EMO) and 4% Flaxseed FFA oil combo gives an rHLB value of 12.64, which would coincide with a 25/75 ratio of S-2/S-20 or Monolaurin/S-20. This would minimize the amount of S-2 which caused larger coalescence at a 1:1 ratio overnight.

[2] = cited from earlier work; for HLB: exemplary HLB value of the single emulsifier
[3] = tested on: Respiratory Syncytial Virus (RSV), Herpes Simplex Virus (HSV), H1N1 flu virus, and SARS-CoV-2; type: cell-based; conditions: nEMO at 0.5 to 50 mg/mL, EtOH 70%
Excerpt: Table 73 below provides formulations of a nEMO sanitizer with 0.5% nEMO, 29.5% glycerol, and 70% […].

[4] = tested on: Respiratory syncytial virus (RSV, A2); type: cell-based; conditions: 70%, 2 min, 37 ± 2° C.; for LRV: VC titer 3.3
[5] = tested on: SARS-CoV-2, USA_WA1/2020; type: cell-based; conditions: 70%, 2 min, 37 ± 2° C.
[6] = tested on: Herpes simplex-1 (HSV-1, H1KOS S1); assay: Virucidal assay, 2 minute contact, end-point dilution (CCID50, LRV); type: cell-based; conditions: 70%, 2 min, 37 ± 2° C.
[7] = tested on: titer assay cells (MA-104, Vero E6, Vero 76)

CCCCCCCCCCCCCCCCO [Cetyl Alcohol]
rHLB of oil percentage [1]: 3.69 | Required HLB (rHLB) ([2]; exemplary value of the oil phase component): 15.5

Glyceryl Stearate SE
HLB [2]: 5.8

Steareth-2
HLB [2]: 4.9

CCO [EtOH]
Virucidal Activity ([3]; H1N1, Log10 of initial virus concentration 5.7): >99.99% | Virucidal Activity ([3]; HSV, Log10 of initial virus concentration 5): >99.99% | Virucidal Activity ([3]; RSV, Log10 of initial virus concentration 3.3): >99% | Virucidal Activity ([3]; SARS-COV-2, Log10 of initial virus concentration 5): >99.99%

CCO [Ethanol]
Virus Titer ([4]; Table 57A): <0.7 log10 CCID50 of virus per 0.1 mL | LRV ([4]; Table 57A): >2.6 | Virus Titer ([4]; Table 57B): <0.7 log10 CCID50 of virus per 0.1 mL | LRV ([4]; Table 57B): >2.6 | Virus Titer ([5]; Table 59A): <0.7 log10 CCID50 of virus per 0.1 mL | LRV ([5]; Table 59A, VC titer 5.3): >4.6 | Virus Titer ([5]; Table 59B): <0.7 log10 CCID50 of virus per 0.1 mL | LRV ([5]; Table 59B, VC titer 5.0): >4.3 | LRV ([6]; Table 60A, VC titer 4.5): >3.8 | LRV ([6]; Table 60B, VC titer 5.0): >4.3 | Toxicity (highest dilution of the endpoint titer with full (80-100%) cytotoxicity) [7]: None

CCCCCCCCCCCC(=O)OCC(O)CO (centres unmarked) [Glyceryl Laurate]
HLB [2]: 5.2
